Reference: US20130071496A1, “CONTROLLED RELEASE COMPOSITION CONTAINING A STRONTIUM SALT” (Osteologix A/S, priority 2003, published 2013)
Like-named read-outs stand apart in the source and are kept apart here.

Tests used:
[1] = Protocol: The solubility of the organic carboxylic acid strontium salts, were measured in water. The solubility of these salts was also measured as a function of temperature. This was performed by incubating the saturated solutions of the salts in temperature controlled incubators.
The buffered solutions were immersed into a bath of water temperature controlled at either room temperature (22-24° C.), at 30° C. or at 40° C. […] In order to eliminate any reminiscent strontium chloride influence on the determination of solubility, all the precipitate was collected at the bottom of the test tubes and the solutions above the precipitate were carefully removed and substituted by fresh solutions. […] From these solutions, the dissolved proportions of the strontium salt were collected in volumes of 1 mL at the specified temperature. The solutions were diluted to 50 mL before analysis by Flame Atomic Absorption Spectrometry (F-AAS).
Two methods were used for quantification of strontium in solutions: Flame Atomic Absorption Spectrometry (F-AAS), and the more sensitive inductively-coupled-plasmamass spectrometry (ICP-MS).
The solubilities were investigated as described above, and strontium content in the saturated solutions determined as described here below.
Some of the very soluble strontium salts were further diluted before analysis by F-AAS. The measurements were performed by using a Perkin-Elmer 2100 equipped with a hydrogen lamp for correction of the background signal. Strontium was measured at a slit with of 0.2 nm, the wavelength was 460.8 nm operated at an energy of 58 and a current of 8 mA.
This analysis was performed using a Perkin Elmer Elan 5000 system equipped with a cross-flow nebulizer. The power was set at 1000 W and the Argon-gas flow was 12 L/min and 0.8 L/min of the torch and plasma gas, respectively.

Remark: listed apart in the source
[2] = values quoted in scientific literature or reference material; cited from earlier work

O=C([O-])/C=C/C(=O)[O-].[Sr+2] [Fumerate, strontium fumarate]
SOLUBILITY AT 40° C., In water [1]: 444 mg/L | SOLUBILITY AT ROOM TEMPERATURE (22-24° C.), In water [1]: 571 Mg/L | solubility compared to the other organic strontium salts [1]: poor solubility | SOLUBILITY AT 40° C., pH 7.5 ([1]; pH 7.5): 977 mg/L | SOLUBILITY AT ROOM TEMPERATURE (22-24° C.), pH 7.5 ([1]; pH 7.5): 1215 Mg/L

N#Cc1c(N(CC(=O)[O-])CC(=O)[O-])sc(C(=O)[O-])c1CC(=O)[O-].[Sr+2].[Sr+2] [Ranelate, distrontium salt of 2-[N,N-di(carboxymethyl)amino]-3-cyano-4-carboxymethylthiophene-5-carboxylic acid, reference compound]
time to maximum serum concentration (rat, in vivo, po): approximately 2 hours | SOLUBILITY AT 40° C., In water [1]: 1450 mg/L | SOLUBILITY AT ROOM TEMPERATURE (22-24° C.), In water [1]: 760 Mg/L | SOLUBILITY AT 40° C., pH 7.5 ([1]; pH 7.5): 1970 mg/L | SOLUBILITY AT ROOM TEMPERATURE (22-24° C.), pH 7.5 ([1]; pH 7.5): 890 Mg/L

CC(=O)C(=O)O [Pyruvate, strontium pyruvate]
SOLUBILITY AT ROOM TEMPERATURE (22-24° C.), In water [1]: 2204 Mg/L | SOLUBILITY AT ROOM TEMPERATURE (22-24° C.), pH 7.5 ([1]; pH 7.5): 1946 Mg/L

[Cl-].[Cl-].[Sr+2] [SrCl2, strontium chloride]
Solubility, Expected Value 18° C. [2]: 538 mg/mL | time to maximum serum concentration (serum strontium, single oral gavage, rats): approximately 2 hours | Solubility, Measured ([1]; commercially available salts, in water at room temperature (22-24°)): 240 mg/mL

O=C([O-])/C=C\C(=O)[O-].[Sr+2] [Maleate, strontium maleate]
SOLUBILITY AT 40° C., In water [1]: 2527 mg/L | SOLUBILITY AT ROOM TEMPERATURE (22-24° C.), In water [1]: 3002 Mg/L | SOLUBILITY AT 40° C., pH 7.5 ([1]; pH 7.5): 1457 mg/L | SOLUBILITY AT ROOM TEMPERATURE (22-24° C.), pH 7.5 ([1]; pH 7.5): 1680 Mg/L | solubility in pH 7.5 buffered solution compared with pure water ([1]; pH 7.5): decreased solubility in the buffered solution
